Molecules are shown by their SMILES.

The source of these data is patent US9249096B2, “Pyrrolinone carboxamide compounds useful as endothelial lipase inhibitors” (Bristol-Myers Squibb Company, priority 2011, dated 2016).

endothelial lipase (EL), sequence (Q9Y5X9 21-500): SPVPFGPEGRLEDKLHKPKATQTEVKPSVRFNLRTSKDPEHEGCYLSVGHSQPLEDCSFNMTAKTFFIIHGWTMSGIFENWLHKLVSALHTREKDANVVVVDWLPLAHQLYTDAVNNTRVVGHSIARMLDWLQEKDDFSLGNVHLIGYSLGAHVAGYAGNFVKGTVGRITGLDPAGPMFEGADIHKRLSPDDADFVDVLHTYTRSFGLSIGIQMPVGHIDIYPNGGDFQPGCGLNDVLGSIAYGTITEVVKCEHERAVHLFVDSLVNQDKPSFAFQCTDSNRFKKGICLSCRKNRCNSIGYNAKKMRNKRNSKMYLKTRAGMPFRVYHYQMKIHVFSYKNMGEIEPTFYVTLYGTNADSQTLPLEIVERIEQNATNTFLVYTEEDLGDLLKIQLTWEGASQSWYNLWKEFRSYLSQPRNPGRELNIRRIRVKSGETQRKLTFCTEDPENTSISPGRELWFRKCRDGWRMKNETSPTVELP

The assay concerns the target endothelial lipase (EL) (Homo sapiens (Human), UniProt Q9Y5X9). As to the kind of experiment: Endothelial lipase (EL) enzymatic assay with fluorescent substrate A10070 in DMPG vesicles. It is filed as biochemical. To be noted: conditioned media from HT-1080 cells overexpressing endogenous EL; 20 min preincubation at 37° C.; read-out: HLE_EL_CRC IC50. As to the method:
Endothelial lipase activity was measured using a fluorescent substrate, A10070, (Invitrogen, CA) doped into an artificial vesicle containing DMPG (Avanti Polar Lipids) as the excipient. Vesicles were prepared by combining 285 uL of 1 mM DMPG in a 1:1 mixture of MeOH and CHCl3 with 15 uL of 1 mM A10070 in a 1:1 mixture of MeOH and CHCl3. The mixture was dried under nitrogen and resuspended in 150 uL of 50 mM HEPES pH 8.0 buffer containing 100 mM NaCl and 0.2 mM EDTA. The sample was allowed to sit at rt for 15 min and then was sonicated 3×4 mins on ice with a Branson Sonicator using duty cycle 1. This preparation provides vesicles with a mole fraction of 0.05 for the FRET substrate.
The enzymatic assay was measured using white, opaque 96-well half area plates. Each well contained 60 uL of assay buffer (50 mM HEPES pH 8.0, 50 mM NaCl and 1 mM CaCl2) and 2 ul of a DMSO solution containing compound of interest. Conditioned media obtained from HT-1080 cells, which were transformed by RAGE technology (Athersys) to overexpress endogenous EL, was added and the reaction was allowed to incubate for 20 min at 37° C. with gentle agitation. The reaction was started by the addition of 20 uL of a 1:4 dilution of vesicles. The final total reaction volume was 100 uL. The reaction rates were measured on a Gemini plate reader with an excitation wavelength of 488 nm and a emission of 530 nm. Readings were taken every 20 seconds for 10 min with agitation between each reading. The slope of the linear portion of the readout was used to calculate the rate of the reaction.
The exemplified examples disclosed in the present invention were tested in the EL assay described above and found having EL inhibitory activity.
Turning to `CN1C(=O)C(O)=C(C(=O)NCCCc2ccc(Cl)c(Cl)c2)C1CCc1ccccc1` (single isomer, unassigned; isomer a) [Example 195, N-(3-(3,4-dichlorophenyl)propyl)-4-hydroxy-1-methyl-5-oxo-2-phenethyl-2,5-dihydro-1H-pyrrole-3-carboxamide (isomer A)], the half-inhibitory concentration (IC50) (in general, the point on the concentration scale where inhibition reaches its midpoint) was 523 nM.
As for `CN1CC(C(=O)NCCc2ccc(Cl)c(Cl)c2)=C(O)C1=O` [Example 1, N-(3,4-dichlorophenethyl)-4-hydroxy-1-methyl-5-oxo-2,5-dihydro-1H-pyrrole-3-carboxamide], the IC50 was determined as 528 nM.
Under `CN1CC(C(=O)NCCc2ccccc2)=C(O)C1=O` [Example 3, 4-hydroxy-1-methyl-5-oxo-N-phenethyl-2,5-dihydro-1H-pyrrole-3-carboxamide] stands 2950 nM; under `CN1CC(C(=O)NCCc2ccc(Cl)cc2)=C(O)C1=O` [Example 5, N-(4-chlorophenethyl)-4-hydroxy-1-methyl-5-oxo-2,5-dihydro-1H-pyrrole-3-carboxamide], 559 nM; under `CN1C(=O)C(O)=C(C(=O)NCCCc2ccc(Cl)c(Cl)c2)C1C(C)(C)C` (stereo not drawn) [Example 17, 2-tert-butyl-N-(3-(3,4-dichlorophenyl)propyl)-4-hydroxy-1-methyl-5-oxo-2,5-dihydro-1H-pyrrole-3-carboxamide], 430 nM.
Under `Cc1ccc(CC2C(C(=O)NCCCc3ccc(Cl)c(Cl)c3)=C(O)C(=O)N2C)cc1` (stereo not drawn) [Example 30, N-(3-(3,4-dichlorophenyl)propyl)-4-hydroxy-1-methyl-2-(4-methylbenzyl)-5-oxo-2,5-dihydro-1H-pyrrole-3-carboxamide] stands 584 nM.
Then `O=C(NCCCc1ccc(Cl)c(Cl)c1)C1=C(O)C(=O)N(C2CCC2)C1` [Example 39, 1-cyclobutyl-N-(3-(3,4-dichlorophenyl)propyl)-4-hydroxy-5-oxo-2,5-dihydro-1H-pyrrole-3-carboxamide], with 5.09 nM.
In the case of `O=C(NCCCc1ccc(Cl)c(Cl)c1)C1=C(O)C(=O)N(Cc2ccccc2)C1` [Example 40, 1-benzyl-N-(3-(3,4-dichlorophenyl)propyl)-4-hydroxy-5-oxo-2,5-dihydro-1H-pyrrole-3-carboxamide], the IC50 amounted to 3.65 nM.
Under `CC(C)CN1CC(C(=O)NCCCc2ccc(Cl)c(Cl)c2)=C(O)C1=O` [Example 42, N-(3-(3,4-dichlorophenyl)propyl)-4-hydroxy-1-isobutyl-5-oxo-2,5-dihydro-1H-pyrrole-3-carboxamide] stands 2.93 nM; under `O=C(NCCCc1ccc(Cl)c(Cl)c1)C1=C(O)C(=O)N(CCc2ccccc2)C1` [Example 44, N-(3-(3,4-dichlorophenyl)propyl)-4-hydroxy-5-oxo-1-phenethyl-2,5-dihydro-1H-pyrrole-3-carboxamide], 3.22 nM.
Under `CC(C)CCN1CC(C(=O)NCCCc2ccc(Cl)c(Cl)c2)=C(O)C1=O` [Example 45, N-(3-(3,4-dichlorophenyl)propyl)-4-hydroxy-1-isopentyl-5-oxo-2,5-dihydro-1H-pyrrole-3-carboxamide] stands 2.71 nM; under `CCCCN1CC(C(=O)NCCCc2ccc(Cl)c(Cl)c2)=C(O)C1=O` [Example 46, 1-butyl-N-(3-(3,4-dichlorophenyl)propyl)-4-hydroxy-5-oxo-2,5-dihydro-1H-pyrrole-3-carboxamide], 3.25 nM; under `O=C(NCCCc1ccc(Cl)c(Cl)c1)C1=C(O)C(=O)N(Cc2cccc(Cl)c2)C1` [Example 47, 1-(3-chlorobenzyl)-N-(3-(3,4-dichlorophenyl)propyl)-4-hydroxy-5-oxo-2,5-dihydro-1H-pyrrole-3-carboxamide], 3.3 nM.
Under `O=C(NCCCc1ccc(Cl)c(Cl)c1)C1=C(O)C(=O)N(Cc2cccc(F)c2)C1` [Example 50, N-(3-(3,4-dichlorophenyl)propyl)-1-(3-fluorobenzyl)-4-hydroxy-5-oxo-2,5-dihydro-1H-pyrrole-3-carboxamide] stands 5.99 nM.
For `O=C(NCCCc1ccc(Cl)c(Cl)c1)C1=C(O)C(=O)N(Cc2ccc(F)cc2)C1` [Example 51, N-(3-(3,4-dichlorophenyl)propyl)-1-(4-fluorobenzyl)-4-hydroxy-5-oxo-2,5-dihydro-1H-pyrrole-3-carboxamide], the IC50 was determined as 5.52 nM.
Regarding `O=C(NCCCc1ccc(Cl)c(Cl)c1)C1=C(O)C(=O)N(CCc2ccccc2Cl)C1` [Example 53, 1-(2-chlorophenethyl)-N-(3-(3,4-dichlorophenyl)propyl)-4-hydroxy-5-oxo-2,5-dihydro-1H-pyrrole-3-carboxamide], the 50% inhibitory concentration (IC50) came to 5.24 nM.
`CC(C)(C)CCN1CC(C(=O)NCCCc2ccc(Cl)c(Cl)c2)=C(O)C1=O` [Example 55, N-(3-(3,4-dichlorophenyl)propyl)-1-(3,3-dimethylbutyl)-4-hydroxy-5-oxo-2,5-dihydro-1H-pyrrole-3-carboxamide]: the IC50 came out at 5.8 nM.
Under `CCOCCN1CC(C(=O)NCCCc2ccc(Cl)c(Cl)c2)=C(O)C1=O` [Example 57, N-(3-(3,4-dichlorophenyl)propyl)-1-(2-ethoxyethyl)-4-hydroxy-5-oxo-2,5-dihydro-1H-pyrrole-3-carboxamide] stands 6.3 nM; under `O=C(NCCCc1ccc(Cl)c(Cl)c1)C1=C(O)C(=O)N(Cc2cc(Cl)cc(Cl)c2)C1` [Example 60, 1-(3,5-dichlorobenzyl)-N-(3-(3,4-dichlorophenyl)propyl)-4-hydroxy-5-oxo-2,5-dihydro-1H-pyrrole-3-carboxamide], 5.64 nM.
Under `O=C(NCCCc1ccc(Cl)c(Cl)c1)C1=C(O)C(=O)N(CCc2ccc(F)cc2)C1` [Example 64, N-(3-(3,4-dichlorophenyl)propyl)-1-(4-fluorophenethyl)-4-hydroxy-5-oxo-2,5-dihydro-1H-pyrrole-3-carboxamide] stands 5.61 nM.
Then `CC(C)OCCN1CC(C(=O)NCCCc2ccc(Cl)c(Cl)c2)=C(O)C1=O` [Example 65, N-(3-(3,4-dichlorophenyl)propyl)-4-hydroxy-1-(2-isopropoxyethyl)-5-oxo-2,5-dihydro-1H-pyrrole-3-carboxamide], with 1.6 nM; and `CN1CC(C(=O)NCCCc2ccccc2)=C(O)C1=O` [Example 166, 4-hydroxy-1-methyl-5-oxo-N-(3-phenylpropyl)-2,5-dihydro-1H-pyrrole-3-carboxamide], with 6440 nM.
Regarding `CN1CC(C(=O)NCCCc2c(Cl)cccc2Cl)=C(O)C1=O` [Example 208, N-(3-(2,6-dichlorophenyl)propyl)-4-hydroxy-1-methyl-5-oxo-2,5-dihydro-1H-pyrrole-3-carboxamide], the IC50 is 384 nM.
Under `CC(CCc1ccc(Cl)c(Cl)c1)NC(=O)C1=C(O)C(=O)N(C)C1` (stereo not drawn) [Example 229, N-(4-(3,4-dichlorophenyl)butan-2-yl)-4-hydroxy-1-methyl-5-oxo-2,5-dihydro-1H-pyrrole-3-carboxamide] stands 4550 nM; under `CC(C)C(CCc1ccc(Cl)c(Cl)c1)NC(=O)C1=C(O)C(=O)N(C)C1` (stereo not drawn) [Example 230, N-(1-(3,4-dichlorophenyl)-4-methylpentan-3-yl)-4-hydroxy-1-methyl-5-oxo-2,5-dihydro-1H-pyrrole-3-carboxamide], 9640 nM.
Then `CN1CC(C(=O)NC(CCc2ccc(Cl)c(Cl)c2)c2ccccc2)=C(O)C1=O` (stereo not drawn) [Example 235, N-(3-(3,4-dichlorophenyl)-1-phenylpropyl)-4-hydroxy-1-methyl-5-oxo-2,5-dihydro-1H-pyrrole-3-carboxamide], with 3060 nM.
Under `CCN1CC(C(=O)NCCCc2cccc(OC)n2)=C(O)C1=O` [Example 265, 1-ethyl-4-hydroxy-N-(3-(6-methoxypyridin-2-yl)propyl)-5-oxo-2,5-dihydro-1H-pyrrole-3-carboxamide] stands 3460 nM.
